Values quoted from earlier work as cited in US6071923A, “Retinoyloxy aryl-substituted alkylene butyrates useful for the treatment of cancer and other proliferative diseases” (Bar-Ilan University, priority 1997, dated 2000).
Where “and” joins values, the source holds several entries; their conditions need not be identical. Identical values can stand only once. Like-named read-outs stand apart in the source and are kept apart here.

Test system: HL-60 cells
[1] = HL-60 human promyelocytic cell line, agent alone, read-out: ED50, induction of differentiation of HL-60 cells, agent alone

| Structure (SMILES) | dose reduction index value (HL-60 cells, BA ED50 alone versus with about 28 nM RA) | EC50 (HL-60 cells, BA combined with about 28 nM RA, read-out: ED50 value for BA in combination with RA) | EC50 [1] |
| --- | --- | --- | --- |
| CCCC(=O)O [BA, Butyric acid] | about 6 fold | ~75 µM | 444 µM and ~400 µM |
| CC1=C(/C=C/C(C)=C/C=C/C(C)=C/C(=O)O)C(C)(C)CCC1 [RA, retinoic acid] |  |  | 0.13 µM |
